{"source": "paper PMC6385376", "about": "“Coupling of a viral K^+-channel with a glutamate-binding-domain highlights the modular design of ionotropic glutamate-receptors” (Communications Biology, 2019)", "type_in_all_cases": "cell-based", "key": {"[1]": {"system": "GluATCVshort (GluA1/KcvATCV-1 chimera)", "assay": "Two-electrode voltage clamp of GluATCVshort expressing Xenopus oocytes", "description": "(§1) The GluATCV constructs were generated by replacing the nucleotide sequence encoding amino acids 538–629 (GluATCVlong), 634 (GluATCV short) and 642 (GluATCV) of the mature GluA1 by the KcvATCV-1 sequence with the use of XhoI and NheI. The GluATCV^ΔNTD and GluATCV^ΔM4 constructs were generated by excising the nucleotide sequence encoding amino acids 19–394 and upstream of 784 of the mature GluA1 by deletion PCR, respectively. All constructs were confirmed by DNA sequencing (Seqlab, Göttingen, Germany).\n(§2) cRNAs were synthesized by using the AmpliCap-Max™ T7 High Yield Message Maker Kit of Cellscript (Madison, Wi, USA) with the plasmid linearized by AatII. X. laevis oocytes were used for two electrode voltage-clamp (TEVC) electrophysiology as previously described. […] The TEVC recordings were performed at room temperature with an Axoclamp 900A amplifier, digitized with a Digidata 1550A at 5 kHz after low-pass filtering at 200 Hz and recorded with Clampex 10.7 (Molecular Devices, San Jose, USA). […]\n(§3) Permeability ratio was calculated by the shift of the reversal potential with the Goldman–Hodgkin–Katz equation under bi-ionic conditions PNa^+/PK^+=expΔErev*F/R*T [27]. The amplitude was measured with KielPatch and also the open probability in bilayer measurements was analyzed by the build in Hinkley-jump-detector of KielPatch (http://www.zbm.uni-kiel.de/aghansen/software.html). […]"}, "[2]": {"system": "GluATCV (GluA1/KcvATCV-1 chimera)", "assay": "Two-electrode voltage clamp of GluATCV expressing Xenopus oocytes", "description": "as §1\n(§4) cRNAs were synthesized by using the AmpliCap-Max™ T7 High Yield Message Maker Kit of Cellscript (Madison, Wi, USA) with the plasmid linearized by AatII. X. laevis oocytes were used for two electrode voltage-clamp (TEVC) electrophysiology as previously described. Oozytes were surgically obtained from female X. laevis after anesthesia with 0.1% Tricaine in water under the approval of the Technical University of Darmstadt (Agreement V54-19c20/15 DA8/Anz. 20). After the harvest, oocytes were incubated for 1 h in 0.8 mg collagenase in frog ringer [96 mM NaCl, 2 mM KCl, 1 mM CaCl2,1 mM MgCl2, and 5 mM HEPES (pH 7.4 with NaOH)][53]. After the treatment and a washing step with Ca^2+ free ringer [96 mM NaCl, 2 mM KCl,1 mM MgCl2, and 5 mM HEPES (pH 7.4 with NaOH)] oocytes of stage V and VI were selected and defolliculated by pipetting with a burned glass-Pasteur-pipette. For electrophysiological analysis, oocytes were injected with 50 ng in a volume of 50 nl of the respective construct. After injection the oocytes were incubated in ND-96 solution (96 mM NaCl, 2 mM KCl, 1 mM CaCl2, 1 mM MgCl2, 5 mM HEPES, pH 7.4 with NaOH) at 18 °C for 3–5 days until the electrophysiological measurements. The TEVC recordings were performed at room temperature with an Axoclamp 900A amplifier, digitized with a Digidata 1550A at 5 kHz after low-pass filtering at 200 Hz and recorded with Clampex 10.7 (Molecular Devices, San Jose, USA). For recording the microelectrodes were filled with 3 M KCl (resistance 0.8–2.8 MΩ in external solution) and the oocytes were clamped at −70 mV. The external solution was a modified ringer solution containing 100 mM KCl; 10 mM HEPES; 1.8 mM CaCl2; 1 mM MgCl2 (pH 7.4 with KOH) alone or containing agonist.\n(§5) Permeability ratio was calculated by the shift of the reversal potential with the Goldman–Hodgkin–Katz equation under bi-ionic conditions PNa^+/PK^+=expΔErev*F/R*T [27]. The amplitude was measured with KielPatch and also the open probability in bilayer measurements was analyzed by the build in Hinkley-jump-detector of KielPatch (http://www.zbm.uni-kiel.de/aghansen/software.html). Values given represent means ± SEM. Statistical significance was determined at the p < 0.05 (*), p < 0.01 (**), and p < 0.001 (***) levels using a Student’s two-tailed, unpaired two-side t-test or ANOVA (in case of more groups) and a Tukey post-hoc analysis (Prism 7.00). All data are shown as boxplots with a center line representing the median; box limits are the upper and lower quartiles; whiskers representing min and max."}, "[3]": {"molecular_target": "GluATCV* (GluATCV G614S/F615L) (Rattus norvegicus, UniProt P19490, L497Y)", "sequence (A7K9J5 entry or part of it G77S/F78L)": "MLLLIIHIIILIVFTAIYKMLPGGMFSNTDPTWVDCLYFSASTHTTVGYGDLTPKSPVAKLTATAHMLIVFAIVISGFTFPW", "sequence (P19490 other isoform, or with tags, fused parts or gaps L497Y)": "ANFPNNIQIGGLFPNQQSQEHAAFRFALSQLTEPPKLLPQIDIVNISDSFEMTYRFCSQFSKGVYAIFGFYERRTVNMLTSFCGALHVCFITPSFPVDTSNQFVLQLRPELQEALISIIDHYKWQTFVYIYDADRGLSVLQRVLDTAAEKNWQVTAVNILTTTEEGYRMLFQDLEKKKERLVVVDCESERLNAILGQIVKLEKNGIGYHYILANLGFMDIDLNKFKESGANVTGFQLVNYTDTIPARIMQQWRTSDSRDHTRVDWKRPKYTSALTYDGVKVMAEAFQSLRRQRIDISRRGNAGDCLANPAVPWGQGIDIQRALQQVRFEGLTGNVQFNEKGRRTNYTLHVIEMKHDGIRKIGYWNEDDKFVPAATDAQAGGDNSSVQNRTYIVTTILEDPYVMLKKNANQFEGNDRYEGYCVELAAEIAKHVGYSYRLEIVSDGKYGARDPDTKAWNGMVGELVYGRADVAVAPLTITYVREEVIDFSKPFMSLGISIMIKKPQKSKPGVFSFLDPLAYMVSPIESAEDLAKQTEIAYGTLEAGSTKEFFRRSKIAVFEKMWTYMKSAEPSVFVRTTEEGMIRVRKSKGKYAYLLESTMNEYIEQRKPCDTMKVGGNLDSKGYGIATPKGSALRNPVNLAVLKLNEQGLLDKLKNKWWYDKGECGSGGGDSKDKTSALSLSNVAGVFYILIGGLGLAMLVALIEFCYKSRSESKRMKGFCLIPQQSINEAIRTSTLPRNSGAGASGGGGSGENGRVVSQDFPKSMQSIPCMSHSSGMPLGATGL", "conditions": "GluATCV* oocytes; for Glutamate-induced fraction of the Ba^2+-block (IGlu/IBa): fraction of total Ba^2+-sensitive current", "description": "as §1, §4, §5"}, "[4]": {"molecular_target": "T1, GluA1 glutamate receptor carrying the mutation L479Y (Rattus norvegicus, UniProt P19490, L497Y)", "T1 construct": "expressed in transfected cells; host or cells: Xenopus laevis oocytes (cRNA injection)", "T1 sequence (P19490 19-907 L497Y)": "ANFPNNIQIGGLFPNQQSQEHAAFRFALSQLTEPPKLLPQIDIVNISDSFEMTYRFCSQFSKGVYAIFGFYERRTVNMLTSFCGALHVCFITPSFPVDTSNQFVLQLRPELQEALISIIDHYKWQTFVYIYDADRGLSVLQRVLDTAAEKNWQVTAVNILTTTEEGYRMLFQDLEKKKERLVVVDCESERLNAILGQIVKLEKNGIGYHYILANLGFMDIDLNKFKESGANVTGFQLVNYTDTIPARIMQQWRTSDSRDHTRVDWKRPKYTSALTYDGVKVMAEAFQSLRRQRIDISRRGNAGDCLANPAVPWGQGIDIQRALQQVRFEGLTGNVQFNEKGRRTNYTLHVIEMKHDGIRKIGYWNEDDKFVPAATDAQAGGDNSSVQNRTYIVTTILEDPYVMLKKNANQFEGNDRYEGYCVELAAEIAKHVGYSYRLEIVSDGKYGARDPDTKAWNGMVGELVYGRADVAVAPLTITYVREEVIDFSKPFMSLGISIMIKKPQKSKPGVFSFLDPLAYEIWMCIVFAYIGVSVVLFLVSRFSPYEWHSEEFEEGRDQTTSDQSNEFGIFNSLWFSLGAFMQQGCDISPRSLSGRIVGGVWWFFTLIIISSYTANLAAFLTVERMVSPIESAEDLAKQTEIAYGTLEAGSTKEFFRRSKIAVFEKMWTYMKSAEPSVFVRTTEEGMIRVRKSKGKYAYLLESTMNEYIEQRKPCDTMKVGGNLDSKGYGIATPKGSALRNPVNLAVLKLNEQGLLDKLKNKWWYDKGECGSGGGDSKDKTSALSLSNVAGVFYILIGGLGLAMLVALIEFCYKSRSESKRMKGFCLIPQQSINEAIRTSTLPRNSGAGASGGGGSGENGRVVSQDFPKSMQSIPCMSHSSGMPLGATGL", "assay": "Two-electrode voltage clamp of GluA1 expressing Xenopus oocytes", "conditions": "CNQX IC50, GluA1 (L479Y) oocytes, in the presence of 5 µM glutamate (EC50), n = 5", "description": "as §1, §2, §3"}, "[5]": {"system": "GluATCVlong (GluA1/KcvATCV-1 chimera)", "assay": "Two-electrode voltage clamp of GluATCVlong expressing Xenopus oocytes", "description": "as §1\nas §2, with “described. Oozytes were surgically obtained from female X. laevis after anesthesia with 0.1% Tricaine in water under the approval of the Technical University of Darmstadt (Agreement V54-19c20/15 DA8/Anz. 20). After the harvest, oocytes were incubated for 1 h in 0.8 mg collagenase in frog ringer [96 mM NaCl, 2 mM KCl, 1 mM CaCl2,1 mM MgCl2, and 5 mM HEPES (pH 7.4 with NaOH)][53].” for “described.”"}, "GluATCV*^ΔNTD": {"molecular_target": "GluATCV*^ΔNTD (Rattus norvegicus, UniProt P19490, L497Y)", "sequence (P19490 with tags, fused parts or gaps L497Y)": "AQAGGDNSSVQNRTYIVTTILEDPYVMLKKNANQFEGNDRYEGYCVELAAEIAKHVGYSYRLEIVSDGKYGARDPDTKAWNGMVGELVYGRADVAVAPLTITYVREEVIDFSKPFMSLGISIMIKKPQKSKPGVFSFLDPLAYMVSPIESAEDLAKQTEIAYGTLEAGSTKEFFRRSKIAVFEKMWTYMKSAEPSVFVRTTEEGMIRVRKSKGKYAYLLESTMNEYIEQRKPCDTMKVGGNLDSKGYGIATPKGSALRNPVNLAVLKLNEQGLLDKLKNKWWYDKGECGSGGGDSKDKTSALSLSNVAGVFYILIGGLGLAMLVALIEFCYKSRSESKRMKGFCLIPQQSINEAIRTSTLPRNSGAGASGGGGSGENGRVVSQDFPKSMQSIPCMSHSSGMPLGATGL", "sequence (A7K9J5 1-82 partner)": "as the sequence (A7K9J5 entry or part of it G77S/F78L) above", "conditions": "GluATCV*^ΔNTD oocytes, saturating glutamate concentrations, n = 5", "description": "as §1, §4, §5"}}, "note": "“And” between values parts separate entries of the source, which are not always exact repeats. Equal entries are not always repeated. Where two headings read alike, the source gives them in different places.", "data": [{"compound": "[Ba+2]", "note": "[Ba^2+]", "values": [{"measurement": "Ba^2+-block of the leakage current", "setting": "[1]; −70 mV, absence of agonist, 500 µM Ba^2+, n = 5", "value": "93.5 ± 1.6", "unit": "%"}, {"measurement": "Maximal Ba^2+-sensitive currents", "setting": "[2]", "value": "1.0 ± 0.3", "unit": "µA"}, {"measurement": "Block of initial leakage and Glu-evoked currents by Ba^2+", "setting": "[2]; 500 µM Ba^2+", "value": "could be blocked"}, {"measurement": "Ba^2+-block of the leakage current", "setting": "[2]; −70 mV, n = 5", "value": "84.4 ± 2.3", "unit": "%"}, {"measurement": "Block of glutamate-induced and leakage currents by Ba^2+", "setting": "[3]", "value": "could be efficiently blocked"}, {"measurement": "Maximal Ba^2+-sensitive currents", "setting": "[3]", "value": "0.8 ± 0.2", "unit": "µA"}, {"measurement": "Ba^2+-block of the leakage current", "setting": "[3]; −70 mV, n = 5", "value": "32.9 ± 10.8*** %"}]}, {"compound": "N#Cc1cc2nc(O)c(O)nc2cc1[N+](=O)[O-]", "note": "[CNQX, 6-cyano-7-nitroquinoxaline-2,3-dione]", "values": [{"measurement": "IC50", "setting": "[4]", "value": "2200 nM and 2000 nM"}]}, {"compound": "N[C@@H](CCC(=O)O)C(=O)O", "note": "[glutamate, L-glutamate]", "values": [{"measurement": "Response to Glu application", "setting": "[5]", "value": "remained insensitive"}, {"measurement": "Currents in response to glutamate", "setting": "[1]; 1 mM glutamate", "value": "could not elicit any currents"}, {"measurement": "Glutamate-induced fraction of the Ba^2+-block (IGlu/IBa)", "setting": "[2]; fraction of total Ba^2+-sensitive current, n = 5", "value": "36.4 ± 4.6", "unit": "%"}, {"measurement": "Glu-elicited current amplitude", "setting": "[2]; −70 mV, n = 10", "value": "0.4 ± 0.3", "unit": "µA"}, {"measurement": "Glutamate-induced fraction of the Ba^2+-block (IGlu/IBa)", "setting": "[3]; n = 5", "value": "68.2 ± 5.2** %"}, {"measurement": "Glutamate-induced fraction of the Ba^2+-block (IGlu/IBa)", "setting": "[3]; n = 5, listed as Glu", "value": "68.2 ± 5.2", "unit": "%"}, {"measurement": "Glu-inducible current amplitude (IGlu)", "setting": "[3]; n = 5", "value": "0.7 ± 0.2", "unit": "µA"}, {"measurement": "Imax", "setting": "GluATCV*^ΔNTD", "value": "1.0 ± 0.26", "unit": "µA"}]}]}
